Measured values from patent US9452986B2, “6-heteroaryloxy- or 6-aryloxy-quinoline-2-carboxamides and method of use” (AbbVie Inc., priority 2014, dated 2016).
Where two headings read alike, the source gives them in different places.

Molecular target: recombinant human Nav1.7 (Homo sapiens (Human), UniProt Q15858)
Assay: FRET-based membrane potential assay, recombinant human sodium channel Nav1.7
Assay type: cell-based
Conditions: read-out: FRET-Membrane Potential Nav1.7 IC50
Experimental: FRET-Based Membrane Potential Assays.
Recombinant, Human Sodium Channel, Nav1.7.
On the day of the assay, medium was removed by aspiration, and cells were washed with assay buffer [HBSS (Invitrogen, Carlsbad, Calif.) containing 20 mM HEPES (Invitrogen, Carlsbad, Calif.)]. […] Cells were incubated for 40 minutes at room temperature in the dark. […] The cells were incubated for 90 minutes at room temperature in the dark. Fluorescence readings were made using a FLIPR®^TETRA (Molecular Devices, Sunnyvale Calif.) equipped with voltage-sensor probe optics. At the start of each experiment the optimal (EC80) concentration of depolarizing agent (veratridine) was determined by testing a dilution curve of assay buffer containing veratridine (Sigma-Aldrich, St. Louis, Mo.) and 1 mg/mL scorpion venom (SVqq, from Leiurus quinquestriatus; Sigma-Aldrich, St. Louis, Mo.). […] Test compounds in the daughter plate were diluted to (˜3×) solutions in assay buffer immediately before assaying. Using the FLIPR®^TETRA, 20 μL of the (3×) compound solutions were first added to the cells, then 20 μL of depolarizing solution (3×EC80 veratridine+SVqq) were added 3 minutes later to activate the channel. […] IC50 values were calculated from curve fits of the ratio data using a four-parameter logistic Hill equation (Accelrys Assay Explorer 3.3 Client, Accelrys, San Diego, Calif.) with percent inhibition plotted against compound concentration.

[1] = HEK293 cells stably expressing recombinant human Nav1.7, veratridine + scorpion venom depolarization

Sequence of recombinant human Nav1.7 (Q15858 whole entry): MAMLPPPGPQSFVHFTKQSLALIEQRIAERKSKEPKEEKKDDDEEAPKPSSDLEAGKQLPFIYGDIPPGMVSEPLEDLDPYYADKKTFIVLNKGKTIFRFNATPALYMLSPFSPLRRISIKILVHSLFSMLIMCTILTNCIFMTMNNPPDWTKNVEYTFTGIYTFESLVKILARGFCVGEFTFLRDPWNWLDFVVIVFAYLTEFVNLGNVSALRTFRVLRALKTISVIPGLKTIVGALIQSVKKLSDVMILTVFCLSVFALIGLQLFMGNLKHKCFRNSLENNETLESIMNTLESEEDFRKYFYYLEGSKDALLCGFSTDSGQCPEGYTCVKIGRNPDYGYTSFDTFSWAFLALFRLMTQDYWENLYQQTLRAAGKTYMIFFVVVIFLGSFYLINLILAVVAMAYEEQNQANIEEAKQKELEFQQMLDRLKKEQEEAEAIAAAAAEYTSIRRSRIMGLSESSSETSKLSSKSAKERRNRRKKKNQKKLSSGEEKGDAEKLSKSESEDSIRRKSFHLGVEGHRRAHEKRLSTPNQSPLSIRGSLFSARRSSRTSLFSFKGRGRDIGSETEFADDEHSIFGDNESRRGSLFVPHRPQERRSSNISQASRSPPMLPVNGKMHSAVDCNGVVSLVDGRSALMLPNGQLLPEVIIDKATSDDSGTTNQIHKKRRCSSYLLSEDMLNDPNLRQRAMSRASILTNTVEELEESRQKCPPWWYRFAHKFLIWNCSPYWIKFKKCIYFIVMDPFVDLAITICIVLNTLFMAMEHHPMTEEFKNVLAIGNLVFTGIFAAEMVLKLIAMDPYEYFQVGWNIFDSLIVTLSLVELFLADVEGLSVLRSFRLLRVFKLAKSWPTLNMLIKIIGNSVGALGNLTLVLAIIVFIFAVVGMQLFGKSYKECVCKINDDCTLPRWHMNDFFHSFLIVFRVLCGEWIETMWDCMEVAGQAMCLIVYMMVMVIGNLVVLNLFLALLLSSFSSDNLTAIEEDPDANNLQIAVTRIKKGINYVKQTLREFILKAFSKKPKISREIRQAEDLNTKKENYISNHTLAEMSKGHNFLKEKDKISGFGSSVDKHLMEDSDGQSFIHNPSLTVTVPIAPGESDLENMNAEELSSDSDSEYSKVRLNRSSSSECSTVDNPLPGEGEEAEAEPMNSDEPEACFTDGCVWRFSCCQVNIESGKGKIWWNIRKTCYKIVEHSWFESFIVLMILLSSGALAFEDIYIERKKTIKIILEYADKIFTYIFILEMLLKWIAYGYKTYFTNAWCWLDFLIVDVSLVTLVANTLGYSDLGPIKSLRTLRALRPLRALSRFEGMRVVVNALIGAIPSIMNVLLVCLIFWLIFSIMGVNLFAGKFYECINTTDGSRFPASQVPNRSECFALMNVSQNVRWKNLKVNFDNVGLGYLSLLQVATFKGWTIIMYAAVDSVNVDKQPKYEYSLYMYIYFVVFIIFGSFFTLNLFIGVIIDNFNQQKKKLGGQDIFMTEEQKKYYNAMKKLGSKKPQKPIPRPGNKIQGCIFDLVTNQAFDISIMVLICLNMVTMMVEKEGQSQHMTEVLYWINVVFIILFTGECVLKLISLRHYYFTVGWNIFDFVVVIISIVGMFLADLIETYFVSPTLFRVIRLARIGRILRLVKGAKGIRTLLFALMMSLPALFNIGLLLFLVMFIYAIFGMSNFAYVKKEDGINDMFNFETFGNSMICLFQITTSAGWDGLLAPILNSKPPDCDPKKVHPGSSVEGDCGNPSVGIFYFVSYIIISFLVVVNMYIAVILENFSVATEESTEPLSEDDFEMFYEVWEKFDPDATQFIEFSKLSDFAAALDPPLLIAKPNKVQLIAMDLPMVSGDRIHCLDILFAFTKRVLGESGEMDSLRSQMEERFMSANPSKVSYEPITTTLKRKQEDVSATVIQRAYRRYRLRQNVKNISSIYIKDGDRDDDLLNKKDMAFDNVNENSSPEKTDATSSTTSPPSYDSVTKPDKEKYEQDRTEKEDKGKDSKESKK

| Compound | IC50 [1] [nM] | IC50 [nM] |
| --- | --- | --- |
| O=C1CC(CNC(=O)c2ccc3cc(Oc4ccc(C(F)(F)F)cn4)ccc3n2)CN1 (centres unmarked) [Example 609, N-[(5-oxopyrrolidin-3-yl)methyl]-6-{[5-(trifluoromethyl)pyridin-2-yl]oxy}quinoline-2-carboxamide] | 4500 |  |
| COC(C)(C)CNC(=O)c1ccc2cc(Oc3ccc(C(F)(F)F)cn3)ccc2n1 [Example 541, N-(2-methoxy-2-methylpropyl)-6-{[5-(trifluoromethyl)pyridin-2-yl]oxy}quinoline-2-carboxamide] | 1190 |  |
| O=C(NC1CCC(F)(F)CC1)c1ccc2cc(Oc3ccc(C(F)F)cn3)ccc2n1 [Example 437, N-(4,4-difluorocyclohexyl)-6-{[5-(difluoromethyl)pyridin-2-yl]oxy}quinoline-2-carboxamide] | 3170 |  |
| N#Cc1ccc(Oc2ccc3nc(C(=O)NCc4cccs4)ccc3c2)cc1 [Example 92, 6-(4-cyanophenoxy)-N-(2-thienylmethyl)quinoline-2-carboxamide] | 9830 |  |
| O=C(c1ccc2cc(Oc3ccc(C(F)F)cn3)ccc2n1)N1CCN[C@@H](CO)C1 [Example 440, (6-{[5-(difluoromethyl)pyridin-2-yl]oxy}quinolin-2-yl) [(3R)-3-(hydroxymethyl)piperazin-1-yl]methanone] | 12600 |  |
| CC(C)NC(=O)CN(C)C(=O)c1ccc2cc(Oc3ccc(C(F)F)cn3)ccc2n1 [Example 468, 6-{[5-(difluoromethyl)pyridin-2-yl]oxy}-N-[2-(isopropylamino)-2-oxoethyl]-N-methylquinoline-2-carboxamide] | 13800 |  |
| COCCNC(=O)CN(C)C(=O)c1ccc2cc(Oc3ccc(C(F)F)cn3)ccc2n1 [Example 457, 6-{[5-(difluoromethyl)pyridin-2-yl]oxy}-N-{2-[(2-methoxyethyl)amino]-2-oxoethyl}-N-methylquinoline-2-carboxamide] | > 20000 |  |
| COCCn1cc(S(=O)(=O)N2CCN(C(=O)c3ccc4cc(Oc5ccc(C(F)(F)F)cn5)ccc4n3)CC2)cn1 [Example 384, (4-{[1-(2-methoxyethyl)-1H-pyrazol-4-yl]sulfonyl}piperazin-1-yl)(6-{[5-(trifluoromethyl)pyridin-2-yl]oxy}quinolin-2-yl)methanone] | 1930 |  |
| O=C(NCC1CN(C(=O)c2ccc3cc(Oc4ccc(C(F)(F)F)cn4)ccc3n2)CC1F)OCc1ccccc1 (centres unmarked) [Example 492, benzyl ({4-fluoro-1-[(6-{[5-(trifluoromethyl)pyridin-2-yl]oxy}quinolin-2-yl)carbonyl]pyrrolidin-3-yl}methyl)carbamate] | 858 |  |
| O=C(NC1CS(=O)(=O)CC1O)c1ccc2cc(Oc3ccc(C(F)(F)F)cn3)ccc2n1 (centres unmarked) [Example 285, N-(4-hydroxy-1,1-dioxidotetrahydrothiophen-3-yl)-6-{[5-(trifluoromethyl)pyridin-2-yl]oxy}quinoline-2-carboxamide] |  | 774 |
| C[C@H](O)CNC(=O)c1ccc2cc(Oc3ccc(C(F)(F)F)cn3)ccc2n1 [Example 410, N-[(2S)-2-hydroxypropyl]-6-{[5-(trifluoromethyl)pyridin-2-yl]oxy}quinoline-2-carboxamide] |  | 557 |
| Cc1cc(C)nc(Oc2ccc3nc(C(=O)NC4CCS(=O)(=O)C4)ccc3c2)n1 (centres unmarked) [Example 162, 6-[(4,6-dimethylpyrimidin-2-yl)oxy]-N-(1,1-dioxidotetrahydrothiophen-3-yl)quinoline-2-carboxamide] | > 20000 |  |
| O=C(c1ccc2cc(Oc3ccc(C(F)(F)F)cn3)ccc2n1)N1CCc2[nH]cnc2C1 [Example 360, 1,4,6,7-tetrahydro-5H-imidazo[4,5-c]pyridin-5-yl(6-{[5-(trifluoromethyl)pyridin-2-yl]oxy}quinolin-2-yl)methanone] |  | 1090 |
| CNS(=O)(=O)N1CCN(C(=O)c2ccc3cc(Oc4ccc(C(F)(F)F)cn4)ccc3n2)CC1 [Example 235, N-methyl-4-[(6-{[5-(trifluoromethyl)pyridin-2-yl]oxy}quinolin-2-yl)carbonyl]piperazine-1-sulfonamide] | 2360 |  |
| O=C(c1ccc2cc(Oc3ccc(C(F)F)cn3)ccc2n1)N1CCC(N2CCOCC2)CC1 [Example 435, (6-{[5-(difluoromethyl)pyridin-2-yl]oxy}quinolin-2-yl)[4-(morpholin-4-yl)piperidin-1-yl]methanone] |  | 12600 |
| O=C(c1ccc2cc(Oc3ccc(C(F)(F)F)cn3)ccc2n1)N1CC[C@H](NS(=O)(=O)c2ccc(C(F)(F)F)cc2)[C@H]1c1ccccc1 [Example 225, N-{(2R,3S)-2-phenyl-1-[(6-{[5-(trifluoromethyl)pyridin-2-yl]oxy}quinolin-2-yl)carbonyl]pyrrolidin-3-yl}-4-(trifluoromethyl)benzenesulfonamide] | > 20000 |  |
| O=C(NCC(=O)N1CCCCC1)c1ccc2cc(Oc3ccc(C(F)(F)F)nc3)ccc2n1 [Example 518, N-[2-oxo-2-(piperidin-1-yl)ethyl]-6-{[6-(trifluoromethyl)pyridin-3-yl]oxy}quinoline-2-carboxamide] | 998 |  |
| O=C(NCCCc1ccccn1)c1ccc2cc(Oc3ccc(C(F)(F)F)cn3)ccc2n1 [Example 607, N-[3-(pyridin-2-yl)propyl]-6-{[5-(trifluoromethyl)pyridin-2-yl]oxy}quinoline-2-carboxamide] | 910 |  |
| O=C(c1ccc2cc(Oc3ccc(C(F)F)cn3)ccc2n1)N1CCN2CC(F)(F)C[C@H]2C1 [Example 542, [(8aS)-7,7-difluorohexahydropyrrolo[1,2-a]pyrazin-2(1H)-yl](6-{[5-(difluoromethyl)pyridin-2-yl]oxy}quinolin-2-yl)methanone] |  | 14500 |
| COC(=O)CS(=O)(=O)N1CCN(C(=O)c2ccc3cc(Oc4ccc(C(F)(F)F)cn4)ccc3n2)CC1 [Example 382, methyl ({4-[(6-{[5-(trifluoromethyl)pyridin-2-yl]oxy}quinolin-2-yl)carbonyl]piperazin-1-yl}sulfonyl)acetate] | 1820 |  |
| CN(C)CCCNC(=O)c1ccc2cc(Oc3ccc(C#N)cc3)ccc2n1 [Example 85, 6-(4-cyanophenoxy)-N-[3-(dimethylamino)propyl]quinoline-2-carboxamide] |  | 238 |
| O=C(NCCN1CCCCC1)c1ccc2cc(Oc3ccc(C(F)(F)F)cn3)ccc2n1 [Example 175, N-[2-(piperidin-1-yl)ethyl]-6-{[5-(trifluoromethyl)pyridin-2-yl]oxy}quinoline-2-carboxamide] | 206 |  |
| CN(C(=O)c1ccc2cc(Oc3ccc(C(F)(F)F)cn3)ccc2n1)C1CCS(=O)(=O)C1 (centres unmarked) [Example 419, N-(1,1-dioxidotetrahydrothiophen-3-yl)-N-methyl-6-{[5-(trifluoromethyl)pyridin-2-yl]oxy}quinoline-2-carboxamide] | 11900 |  |
| N#Cc1ccc(Oc2ccc3nc(C(=O)NCCCN4CCCCC4)ccc3c2)cc1 [Example 100, 6-(4-cyanophenoxy)-N-[3-(piperidin-1-yl)propyl]quinoline-2-carboxamide] | 221 |  |
| O=C1CCC2N1CCCN2C(=O)c1ccc2cc(Oc3ccc(C(F)(F)F)cn3)ccc2n1 (centres unmarked) [Example 614, 1-[(6-{[5-(trifluoromethyl)pyridin-2-yl]oxy}quinolin-2-yl)carbonyl]hexahydropyrrolo[1,2-a]pyrimidin-6(2H)-one] | 12200 |  |
| N#Cc1ccc(Oc2ccc3nc(C(=O)N[C@@H]4CCOc5ccc(F)cc54)ccc3c2)cc1 [Example 139, 6-(4-cyanophenoxy)-N-[(4R)-6-fluoro-3,4-dihydro-2H-chromen-4-yl]quinoline-2-carboxamide] | > 20000 |  |
